Assay results from article PMC11079878 (ACS Omega, 2024).
[ ]: non-standard residue; d: D form. NMeF = CN[C@@H](Cc1ccccc1)C(=O)O; NMeA = CN[C@@H](C)C(=O)O

Columns and labels:
[1] = system: Lolium multiflorum (Ray grass); settings: previously reported cyclotetrapeptides; cited from earlier work
[2] = system: microcystins in Microcystis (MVCC42) cultures; format: cell-based, Microcystis aeruginosa
[3] = system: Microcystis aeruginosa strain (MVCC42); experiment: Cyanobacteria growth inhibition; settings: colistin 30 μg/mL, positive control; duplicates, 7–10 days
[4] = qualitative; cited from earlier work
[5] = system: HepG2 cells; settings: qualitative; cited from earlier work
[6] = system: Lolium multiflorum (Ray grass); experiment: Herbicidal activity, germination in agar methodology; format: in vivo; settings: 67 μg/mL in agar; Ryegrass, 12 days; three replicates; Figure S48

In the case of cyclo([NMeA]L[NMeF]G) [compound 24], the “radicle growth inhibition (reported activity)” value (from here on “radicle growth inhibition”) [1] is given as 81%.

For colistine, the “inhibition of microcystins concentration (%)” value [2] was 90%.

For `CCc1cccc(C)c1N(C(=O)CCl)[C@@H](C)COC` [Positive control, S-metolachlor], the “reduction of chlorophyll a (%)” value [3] was 99%.

In the case of versicotide D, the phytotoxicity [4] is given as “high phytotoxicity” and the “cytotoxicity on HepG2 cells” value [5] is given as “low cytotoxicity”.

For cyclo(AL[dF]G) [compound 16], the “radicle growth inhibition” value [1] is given as 41%.

In the case of cyclo([NMeA]LFG) [compound 17], the “radicle growth inhibition” value [1] is listed as 71%.

For “NH-MeAla-Leu-D-Phe-β-Ala-OH [compound 29]”, the “leaf development (%)” value [6] was “not active”.

In the case of “cyclo(NMe-Ala-Leu-NMe-Δ^z-Phe-Gly) (head to tail) [Tentoxin]”, the “phytotoxic effect on seedlings” value [4] is given as “causes seedling chlorosis”.
